This is an account of results in patent publication US20250066344A1 (BRISTOL-MYERS SQUIBB COMPANY, priority 2021, published 2025).

In general, pEC50 refers to the EC50 on a negative log10 scale, so that one unit is a factor of ten.

pEC50: −log10 of the molar value.

The assay concerns the target T1, human RXFP1 (Homo sapiens, UniProt Q9HBX9).
T1 construct: expressed in transfected cells
T1 sequence (Q9HBX9 1-757): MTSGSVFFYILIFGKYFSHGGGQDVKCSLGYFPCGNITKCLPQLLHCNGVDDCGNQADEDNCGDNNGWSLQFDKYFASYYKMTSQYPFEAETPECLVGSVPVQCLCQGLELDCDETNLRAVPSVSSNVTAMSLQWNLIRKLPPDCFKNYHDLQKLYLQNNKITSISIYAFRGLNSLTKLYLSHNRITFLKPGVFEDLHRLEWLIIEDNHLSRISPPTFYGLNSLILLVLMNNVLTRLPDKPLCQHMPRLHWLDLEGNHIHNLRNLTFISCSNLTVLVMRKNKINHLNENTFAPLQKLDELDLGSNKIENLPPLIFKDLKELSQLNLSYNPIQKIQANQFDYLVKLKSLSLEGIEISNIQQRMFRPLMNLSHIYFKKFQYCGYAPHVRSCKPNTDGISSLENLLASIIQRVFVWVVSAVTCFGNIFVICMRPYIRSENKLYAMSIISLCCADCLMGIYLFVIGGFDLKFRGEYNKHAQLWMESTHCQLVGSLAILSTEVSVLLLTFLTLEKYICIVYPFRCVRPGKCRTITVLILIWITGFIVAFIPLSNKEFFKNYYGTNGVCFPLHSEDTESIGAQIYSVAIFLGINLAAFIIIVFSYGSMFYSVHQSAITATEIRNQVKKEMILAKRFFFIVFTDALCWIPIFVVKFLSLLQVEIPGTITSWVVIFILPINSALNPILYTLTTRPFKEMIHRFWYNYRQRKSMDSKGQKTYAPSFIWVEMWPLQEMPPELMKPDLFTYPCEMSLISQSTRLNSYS
The assay can be described thus: RXFP1 cyclic adenosine monophosphate (cAMP) assay, hRXFP1 HEK293. The format is cell-based. The note with it: HEK293 cells stably expressing human RXFP1; 30 min at room temperature; HTRF cAMP. Here is the method: RXFP1 Cyclic Adenosine Monophosphate (cAMP) Assays. Human embryonic kidney cells 293 (HEK293) cells and HEK293 cells stably expressing human RXFP1, were cultured in MEM medium supplemented with 10% qualified FBS, and 300 μg/ml hygromycin (Life Technologies). Cells were dissociated and suspended in assay buffer. The assay buffer was HBSS buffer (with calcium and magnesium) containing 20 mM HEPES, 0.05% BSA, and 0.5 mM IBMX. Cells (3000 cells per well, except 1500 cell per well for HEK293 cells stably expressing human RXFP1) were added to 384-well Proxiplates (Perkin-Elmer). Cells were immediately treated with test compounds in DMSO (2% final) at final concentrations in the range of 0.010 nM to 50 μM. Cells were incubated for 30 min at room temperature. The level of intracellular cAMP was determined using the HTRF HiRange cAMP assay reagent kit (Cisbio) according to manufacturer's instructions. Solutions of cryptate conjugated anti-cAMP and d2 fluorophore-labelled cAMP were made in a supplied lysis buffer separately. Upon completion of the reaction, the cells were lysed with equal volume of the d2-cAMP solution and anti-cAMP solution. After a 1 h room temperature incubation, time-resolved fluorescence intensity was measured using the Envision (Perkin-Elmer) at 400 nm excitation and dual emission at 590 nm and 665 nm. A calibration curve was constructed with an external cAMP standard at concentrations ranging from 2.7 μM to 0.1 μM by plotting the fluorescent intensity ratio from 665 nm emission to the intensity from the 590 nm emission against cAMP concentrations. The potency and activity of a compound to […] cAMP production was then determined by fitting to a 4-parametric logistic equation from a plot of cAMP level versus compound concentrations.
The examples disclosed below were tested in the human RXFP1 (hRXFP) HEK293 cAMP assay described above and found to have agonist activity. Tables 1-3, lists EC50 values in the hRXFP1 HEK293 cAMP assay measured for the examples.
Table A lists EC50 values in the hRXFP1 HEK293 cAMP assay measured for the examples.
Background: Time-resolved FRET reads energy transfer from a long-lived donor to a nearby acceptor.
In turn, `COc1ccc(C2=NOC3CC(CO)CC23)cc1C(=O)Nc1cc2c(cc1C(=O)Nc1ccc(F)c(C(F)(F)F)c1)OC(F)(F)O2` (centres unmarked) [Example 99, 2,2-difluoro-N-(4-fluoro-3-(trifluoromethyl)phenyl)-6-(5-(5-(hydroxymethyl)-3a,5,6,6a-tetrahydro-4H-cyclopenta[d]isoxazol-3-yl)-2-methoxybenzamido) benzo[d][1,3]dioxole-5-carboxamide] showed a negative-log EC50 (pEC50) of 8.41.
With `COc1ccc(C2=NOC3(COC(=O)C3)C2)cc1C(=O)Nc1cc2c(cc1C(=O)Nc1ccc(F)c(C(F)(F)F)c1)OC(F)(F)O2` (centres unmarked) [Example 78, 2,2-difluoro-N-(4-fluoro-3-(trifluoromethyl)phenyl)-6-(2-methoxy-5-(8-oxo-1,7-dioxa-2-azaspiro[4.4]non-2-en-3-yl)benzamido)benzo[d] [1,3]dioxole-5-carboxamide], the pEC50 is 6.58.
`COc1ccc(-c2cc(C(=O)O)ccc2F)cc1C(=O)Nc1cc2c(C)noc2cc1C(=O)Nc1ccc(F)c(C(F)(F)F)c1` [Example 31, 6-fluoro-3′-((6-((4-fluoro-3-(trifluoromethyl)phenyl)carbamoyl)-3-methylbenzo[d]isoxazol-5-yl)carbamoyl)-4′-methoxy-[1,1′-biphenyl]-3-carboxylic acid] gave a negative logarithm of the EC50 (pEC50) of 6.94.
`COc1ccc(-c2cnc3n2CCN(C2COC2)C3)cc1C(=O)Nc1cc2c(cc1C(=O)Nc1ccc(F)c(C(F)(F)F)c1)OC(F)(F)O2` [Example 81, 2,2-difluoro-N-(4-fluoro-3-(trifluoromethyl)phenyl)-6-(2-methoxy-5-(7-(oxetan-3-yl)-5,6,7,8-tetrahydroimidazo[1,2-a]pyrazin-3-yl)benzamido)benzo[d] [1,3]dioxole-5-carboxamide]: the negative logarithm of the EC50 (pEC50) was 6.55.
For `COc1ccc(C2CC3(CNC3)C2)cc1C(=O)Nc1cc2c(cc1C(=O)Nc1ccc(F)c(C(F)(F)F)c1)OC(F)(F)O2` [Example 92, 2,2-difluoro-N-(4-fluoro-3-(trifluoromethyl)phenyl)-6-(2-methoxy-5-(2-azaspiro[3.3]heptan-6-yl)benzamido)benzo[d] [1,3]dioxole-5-carboxamide], the pEC50 is 5.58.
In turn, `COc1ccc(-c2cc(C(=O)O)ccc2F)cc1C(=O)Nc1cc2c(cc1C(=O)Nc1ccc(F)c(C(F)(F)F)c1)OC(F)(F)O2` [Example 57, 3′-((2,2-difluoro-6-((4-fluoro-3-(trifluoromethyl)phenyl)carbamoyl)benzo[d][1,3]dioxol-5-yl)carbamoyl)-6-fluoro-4′-methoxy-[1,1′-biphenyl]-3-carboxylic acid] showed a pEC50 of 6.90.
On to `COc1ccc(C2=NOC(C(C)(C)O)C2)cc1C(=O)Nc1cc2c(cc1C(=O)Nc1ccc(F)c(C(F)(F)F)c1)OC(F)(F)O2` (single isomer, unassigned) [Example 77, 2,2-difluoro-N-(4-fluoro-3-(trifluoromethyl)phenyl)-6-(5-(5-(2-hydroxypropan-2-yl)-4,5-dihydroisoxazol-3-yl)-2-methoxybenzamido) benzo[d][1,3]dioxole-5-carboxamide], for which the pEC50 is 6.31.
In turn, `COc1ccc(C2CCN(C(=O)C(C)(C)O)C2)cc1C(=O)Nc1cc2c(cc1C(=O)Nc1ccc(F)c(C(F)(F)F)c1)OC(F)(F)O2` (single isomer, unassigned) [Example 55, 2,2-difluoro-N-(4-fluoro-3-(trifluoromethyl)phenyl)-6-(5-(1-(2-hydroxy-2-methylpropanoyl)pyrrolidin-3-yl)-2-methoxybenzamido) benzo[d][1,3]dioxole-5-carboxamide] had a pEC50 of 6.49.
As to `COc1ccc(C(=O)N2CC[C@@H](O)C2)cc1C(=O)Nc1cc2c(cc1C(=O)Nc1ccc(F)c(C(F)(F)F)c1)OC(F)(F)O2` [Example 40, (R)-2,2-difluoro-N-(4-fluoro-3-(trifluoromethyl)phenyl)-6-(5-(3-hydroxypyrrolidine-1-carbonyl)-2-methoxybenzamido) benzo[d][1,3]dioxole-5-carboxamide], the pEC50 was 6.71.
For the molecule `COc1ccc(C2=NOC3C(O)CC(O)C23)cc1C(=O)Nc1cc2nc(C)sc2cc1C(=O)Nc1ccc(F)c(C(F)(F)F)c1` (centres unmarked) [Example 7, 5-(5-(4,6-dihydroxy-3a,5,6,6a-tetra-hydro-4H-cyclopenta[d]isoxazol-3-yl)-2-methoxy-benzamido)-N-(4-fluoro-3-(trifluorometh-yl)phenyl)-2-methylbenzo [d]thiazole-6-carboxamide], the negative-log EC50 (pEC50) was 7.51.
As for `COc1ccc(-c2ccc3c(c2)CCNC3)cc1C(=O)Nc1cc2c(cc1C(=O)Nc1ccc(F)c(C(F)(F)F)c1)OC(F)(F)O2` [Example 93, 2,2-difluoro-N-(4-fluoro-3-(trifluoromethyl)phenyl)-6-(2-methoxy-5-(1,2,3,4-tetrahydroisoquinolin-6-yl)benzamido)benzo[d] [1,3]dioxole-5-carboxamide], the pEC50 is 5.96.
`COc1ccc(N2CC(CN)CC2=O)cc1C(=O)Nc1cc2nc(C)sc2cc1C(=O)Nc1ccc(F)c(C(F)(F)F)c1` (centres unmarked) [Example 21, 5-(5-(4-(ami-nomethyl)-2-oxopyrrolidin-1-yl)-2-meth-oxybenzami-do)-N-(4-fluoro-3-(tri-fluoromethyl)-phenyl)-2-methylbenzo [d]thiazole-6-carboxamide]: the negative-log EC50 (pEC50) is 5.39.
Take `COc1ccc(-c2cc(C(=O)NS(C)(=O)=O)ccc2F)cc1C(=O)Nc1cc2c(cc1C(=O)Nc1ccc(F)c(C(F)(F)F)c1)OC(F)(F)O2` [Example 47, N3-(2,2-difluoro-6-((4-fluoro-3-(trifluoromethyl)phenyl)carbamoyl)benzo[d][1,3]dioxol-5-yl)-6′-fluoro-4-methoxy-N3′-(methylsulfonyl)-[1,1′-biphenyl]-3,3′-dicarboxamide]: the negative logarithm of the EC50 (pEC50) was 7.07.
In the case of `COc1ccc(C2=NOC3CC(N)CC23)cc1C(=O)Nc1cc2c(cc1C(=O)Nc1ccc(F)c(C(F)(F)F)c1)OC(F)(F)O2` (single isomer, unassigned) [Example 50, 6-(5-(5-amino-3a,5,6,6a-tetrahydro-4H-cyclopenta[d]isoxazol-3-yl)-2-methoxybenzamido)-2,2-difluoro-N-(4-fluoro-3-(trifluoromethyl)phenyl)benzo[d][1,3]dioxole-5-carboxamide] it was 7.01; in that of `COc1ccc(C2=NOC3(CCN(CC(N)=O)CC3)C2)cc1C(=O)Nc1cc2c(cc1C(=O)Nc1ccc(F)c(C(F)(F)F)c1)OC(F)(F)O2` [Example 69, 6-(5-(8-(2-amino-2-oxoethyl)-1-oxa-2,8-diazaspiro[4.5]dec-2-en-3-yl)-2-methoxybenzamido)-2,2-difluoro-N-(4-fluoro-3-(trifluoromethyl)phenyl) benzo[d][1,3]dioxole-5-carboxamide], 7.38; in that of `COc1ccc(-c2cc([C@H](OC(=O)NC3CCC3)C(F)(F)F)ccc2F)cc1C(=O)Nc1cc2c(C)noc2cc1C(=O)Nc1ccc(F)c(C(F)(F)F)c1` [Example 32, (S)-2,2,2-trifluoro-1-(6-fluoro-3′-((6-((4-fluoro-3-(trifluoromethyl)phenyl)carbamoyl)-3-methylbenzo[d]isoxazol-5-yl)carbamoy])-4-methoxy-[1,1′-biphenyl]-3-yl)ethyl cyclobutylcarbamate], 7.74.
With `COc1ccc(C2=NOC3COCC23)cc1C(=O)Nc1cc2nc(C)sc2cc1C(=O)Nc1ccc(F)c(C(F)(F)F)c1` (single isomer, unassigned) [Example 2, N-(4-fluoro-3-(trifluoromethyl)phenyl)-5-(2-methoxy-5-(3a,4,6,6a-tetrahydrofuro[3,4-d]isoxazol-3-yl)benzamido)-2-methylbenzo[d]thiazole-6-carboxamide], the pEC50 is 6.00.
